Laboratory results as given in ChEMBL document CHEMBL1201862, “PubChem BioAssay data set” (2004).
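Compound exposure: 48 hours, 5 concentrations, 96-well plates. GI50 = concentration required for 50% inhibition of growth.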 The source made the active and inactive calls. No stated cut-off is given here; in the data, active = GI50 up to about 1.1 µM and inactive = higher.

Experiments:
Assay in all cases: DTP human tumour cell line panel, 48 h
HT-29 = system: HT-29
A549 = system: A549
MOLT-4 = system: MOLT-4
DU-145 = system: DU-145
SF-539 = system: SF-539
RPMI-8226 = system: RPMI-8226
OVCAR-3 = system: OVCAR-3
MDA-MB-435 = system: MDA-MB-435
K562 = system: K562
SF-295 = system: SF-295
OVCAR-5 = system: OVCAR-5
HCT-15 = system: HCT-15
PC-3 = system: PC-3
NCI-H522 = system: NCI-H522
OVCAR-4 = system: OVCAR-4
OVCAR-8 = system: OVCAR-8
HCT-116 = system: HCT-116
NCI/ADR-RES = system: NCI/ADR-RES
SK-MEL-28 = system: SK-MEL-28
SNB-75 = system: SNB-75

| Compound | GI50 (HT-29) | GI50 (A549) | GI50 (MOLT-4) | GI50 (DU-145) | GI50 (SF-539) | GI50 (RPMI-8226) | GI50 (OVCAR-3) | GI50 (MDA-MB-435) | GI50 (K562) | GI50 (SF-295) | GI50 (OVCAR-5) | GI50 (HCT-15) | GI50 (PC-3) | GI50 (NCI-H522) | GI50 (OVCAR-4) | GI50 (OVCAR-8) | GI50 (HCT-116) | GI50 (NCI/ADR-RES) | GI50 (SK-MEL-28) | GI50 (SNB-75) |
| --- | --- | --- | --- | --- | --- | --- | --- | --- | --- | --- | --- | --- | --- | --- | --- | --- | --- | --- | --- | --- |
| Cc1ccc(S(=O)(=O)N/N=C2\CCCCCCCCCCC2CN(C)C)cc1 (stereo unspecified) | 15.5 µM (inactive) | 19.3 µM (inactive) | 26.7 µM (inactive) | 18.5 µM (inactive) | 17.1 µM (inactive) | 38.7 µM (inactive) | 17.5 µM (inactive) | 14.7 µM (inactive) | 13.2 µM (inactive) | 16.8 µM (inactive) | 16.3 µM (inactive) | 15 µM | 15.3 µM (inactive) | 14.3 µM (inactive) | 18 µM (inactive) | 16.8 µM (inactive) | 14.7 µM (inactive) | 14.9 µM (inactive) | 14.8 µM (inactive) |  |
| FC(F)(F)c1cc(N(C2c3ccccc3C=Cc3ccccc32)P(Cl)Cl)cc(C(F)(F)F)c1 | 24.5 µM (inactive) | 18.3 µM (inactive) | 13.1 µM (inactive) | 19.3 µM (inactive) | 26.7 µM (inactive) | 18 µM (inactive) | 16.4 µM (inactive) | 21.8 µM (inactive) | 15.2 µM (inactive) | 19 µM (inactive) | 20 µM (inactive) | 5.78 µM | 22.7 µM (inactive) | 14.1 µM (inactive) | 18.9 µM (inactive) | 17.6 µM (inactive) | 16.5 µM (inactive) | 3.62 µM (inactive) | 25.6 µM (inactive) | 19.3 µM (inactive) |
| C=CCc1cc(C=C(C#N)C#N)cc(OC)c1O | > 100 µM (inactive) | > 100 µM (inactive) | 40 µM (inactive) | > 100 µM (inactive) | > 100 µM (inactive) | 39.4 µM (inactive) | 35.2 µM (inactive) | 59 µM (inactive) | 62.2 µM (inactive) | > 100 µM (inactive) | > 100 µM (inactive) | 67.6 µM | 35.8 µM (inactive) | 90.6 µM (inactive) | > 100 µM (inactive) | > 100 µM (inactive) | > 100 µM (inactive) | > 100 µM (inactive) | > 100 µM (inactive) | 55.5 µM (inactive) |
| C(CCCCc1nnc(N2CCCCC2)o1)CCCc1nnc(N2CCCCC2)o1 | > 100 µM (inactive) | > 100 µM (inactive) | > 100 µM (inactive) | > 100 µM (inactive) | > 100 µM (inactive) |  | > 100 µM (inactive) | > 100 µM (inactive) | > 100 µM (inactive) | > 100 µM (inactive) | > 100 µM (inactive) | > 100 µM | > 100 µM (inactive) | > 100 µM (inactive) | > 100 µM (inactive) | > 100 µM (inactive) | > 100 µM (inactive) | > 100 µM (inactive) | > 100 µM (inactive) | > 100 µM (inactive) |
| CC(=O)N(C(C)=O)n1c(Cc2ccc(Cl)cc2)nn(C(C)=O)c1=O | > 100 µM (inactive) | > 100 µM (inactive) | > 100 µM (inactive) | > 100 µM (inactive) | > 100 µM (inactive) | > 100 µM (inactive) | > 100 µM (inactive) | > 100 µM (inactive) | > 100 µM (inactive) | > 100 µM (inactive) | > 100 µM (inactive) | > 100 µM | > 100 µM (inactive) | > 100 µM (inactive) | > 100 µM (inactive) | > 100 µM (inactive) |  | > 100 µM (inactive) | > 100 µM (inactive) | > 100 µM (inactive) |
| CCN(CC)CC(O)CNc1ccc(NCC2CO2)c2c1C(=O)c1ccccc1C2=O (stereo unspecified) | 0.553 µM (active) | 1.03 µM (active) |  | 1.63 µM (inactive) | 1.32 µM (inactive) | 0.614 µM (active) | 0.46 µM (active) | 0.211 µM (active) | 0.0479 µM (active) | 1.05 µM (active) | 2.3 µM (inactive) | 0.638 µM | 0.74 µM (active) | 0.647 µM (active) | 1.18 µM (inactive) | 0.0661 µM (active) | 0.0466 µM (active) | 0.0993 µM (active) | 1.11 µM (active) | 1.6 µM (inactive) |
| Nc1nc2c(c(=O)[nH]1)N=C(COP(=O)(O)OP(=O)(O)O)CN2 | > 100 µM (inactive) | > 100 µM (inactive) | > 100 µM (inactive) | > 100 µM (inactive) | > 100 µM (inactive) | > 100 µM (inactive) |  | > 100 µM (inactive) | > 100 µM (inactive) | > 100 µM (inactive) | > 100 µM (inactive) | > 100 µM | > 100 µM (inactive) | > 100 µM (inactive) |  | > 100 µM (inactive) | > 100 µM (inactive) | > 100 µM (inactive) | > 100 µM (inactive) | > 100 µM (inactive) |
| CC1C(=O)N=C2C(=CN(Cc3ccccc3)c3ccccc32)C(=O)N1C (stereo unspecified) | > 100 µM (inactive) | > 100 µM (inactive) |  | > 100 µM (inactive) | > 100 µM (inactive) | > 100 µM (inactive) | > 100 µM (inactive) | > 100 µM (inactive) | 1.44 µM (inactive) |  | > 100 µM (inactive) | > 100 µM | > 100 µM (inactive) | 29.1 µM (inactive) | > 100 µM (inactive) | > 100 µM (inactive) | > 100 µM (inactive) | > 100 µM (inactive) | > 100 µM (inactive) | > 100 µM (inactive) |
| OC(C1CO1)C(O)C1CO1 (stereo unspecified) | 63.5 µM (inactive) |  | 3.68 µM (inactive) | 9.75 µM (inactive) | 23.9 µM (inactive) | 69 µM (inactive) | 70.3 µM (inactive) | 101 µM (inactive) | 81.3 µM (inactive) |  | 77.1 µM (inactive) | 55.3 µM | 39.8 µM (inactive) | 46.9 µM (inactive) | 84.9 µM (inactive) | 55.2 µM (inactive) | 45.8 µM (inactive) | 40.7 µM (inactive) | 92.3 µM (inactive) | 7.96 µM (inactive) |
| CCOC(=O)C(=CNC(=S)Nc1c(CC)cccc1CC)C(=O)OCC | > 100 µM (inactive) | > 100 µM (inactive) | > 100 µM (inactive) | > 100 µM (inactive) | > 100 µM (inactive) | > 100 µM (inactive) | > 100 µM (inactive) | > 100 µM (inactive) | > 100 µM (inactive) | > 100 µM (inactive) | > 100 µM (inactive) |  | > 100 µM (inactive) | > 100 µM (inactive) | > 100 µM (inactive) | > 100 µM (inactive) | > 100 µM (inactive) | > 100 µM (inactive) | > 100 µM (inactive) | 12.8 µM (inactive) |
| COc1ccc(-c2nc(SCC(=O)N/N=C/c3ccc(N(C)C)cc3)[nH]c2-c2ccc(OC)cc2)cc1 | 34.6 µM (inactive) | 17.6 µM (inactive) |  | 78.5 µM (inactive) | > 100 µM (inactive) |  | 20.1 µM (inactive) | 74.8 µM (inactive) | 18.5 µM (inactive) | 37 µM (inactive) | 99.5 µM (inactive) | 46.3 µM | 44.8 µM (inactive) | 31.3 µM (inactive) | > 100 µM (inactive) | 84.7 µM (inactive) | 37.9 µM (inactive) | > 100 µM (inactive) | > 100 µM (inactive) | 62.8 µM (inactive) |
| c1ccc(C/C(=N\Nc2nc3ccccc3[nH]2)c2ccccn2)cc1 | < 0.01 µM (active) | 0.069 µM (active) | < 0.01 µM (active) | 0.291 µM (active) | 0.196 µM (active) | < 0.01 µM (active) | < 0.01 µM (active) | 0.385 µM (active) | 0.0228 µM (active) | 1.92 µM (inactive) |  | < 0.01 µM | < 0.01 µM (active) | < 0.01 µM (active) | < 0.01 µM (active) | 0.0235 µM (active) | < 0.01 µM (active) | < 0.0164 µM (active) | 0.231 µM (active) | 0.403 µM (active) |
| CC1(C2(C)OC(=O)c3ccccc32)OC(=O)c2ccccc21 (stereo unspecified) | > 100 µM (inactive) | > 100 µM (inactive) | 83.8 µM (inactive) | > 100 µM (inactive) | > 100 µM (inactive) | > 100 µM (inactive) | > 100 µM (inactive) | > 100 µM (inactive) |  | > 100 µM (inactive) |  | > 100 µM | > 100 µM (inactive) | 35.9 µM (inactive) | > 100 µM (inactive) | > 100 µM (inactive) | > 100 µM (inactive) | > 100 µM (inactive) | > 100 µM (inactive) | > 100 µM (inactive) |
| NCC1OC(OC2C(N)CC(N)C(O)C2OC2OC(CO)C(O)C2O)C(N)C(O)C1O (stereo unspecified) | > 50 µM (inactive) | > 100 µM (inactive) | > 50 µM (inactive) | > 100 µM (inactive) | > 100 µM (inactive) |  | > 100 µM (inactive) | > 100 µM (inactive) | > 100 µM (inactive) | > 100 µM (inactive) | > 100 µM (inactive) | > 100 µM | > 50 µM (inactive) | > 100 µM (inactive) | > 100 µM (inactive) | > 50 µM (inactive) |  | > 100 µM (inactive) | > 100 µM (inactive) | 27.8 µM (inactive) |
| CCOC(=O)CC[C@H](NC(=O)c1ccc(CNc2nc3cc(C(F)(F)F)ccc3nc2C(=O)OCC)cc1)C(=O)OCC | > 100 µM (inactive) | 34.7 µM (inactive) | > 100 µM (inactive) | > 81.8 µM (inactive) | 4.59 µM (inactive) | 5.58 µM (inactive) | > 38.8 µM (inactive) | > 73.6 µM (inactive) | 70.3 µM (inactive) | 8.34 µM (inactive) | 34.7 µM (inactive) | 76.2 µM | 30.3 µM (inactive) | 15.7 µM (inactive) |  | 9.42 µM (inactive) | > 56.1 µM (inactive) | 26.5 µM (inactive) | > 69.8 µM (inactive) | 12.8 µM (inactive) |
